# Measured values published in PubChem BioAssay (NCI).
#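 In this assay, cells in 96-well plates receive the compound at five concentrations for 48 hours. Endpoints are linearly interpolated between the surrounding concentrations. The concentration for full growth arrest is given as TGI.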
# Key:
# Test in all cases: NCI anticancer screen, dose series, 48 h
# [1] = test system: SK-MEL-28 melanoma
# [2] = test system: U251 CNS
# [3] = test system: IGROV1 ovarian
# [4] = test system: CAKI-1 renal
# [5] = test system: SK-OV-3 ovarian
# [6] = test system: OVCAR-4 ovarian
# [7] = test system: A549 NSCLC
# [8] = test system: MDA-N
# [9] = test system: NCI-H23 lung
# [10] = test system: MDA-MB-231 breast
# [11] = test system: SR leukemia
# [12] = test system: UO-31 renal
# [13] = test system: RPMI-8226 leukemia
# [14] = test system: HCC-2998 colon
# [15] = test system: SF-539 CNS
# [16] = test system: KM12 colon
# [17] = test system: TK-10 renal
# [18] = test system: SNB-75 CNS
# [19] = test system: A498 renal
smiles,measurement,setting,value
CCOC(=O)C(Cc1cn(S(=O)(=O)c2ccc(C)cc2)cn1)P(=O)(OCC)OCC (stereo unspecified),TGI,[1],> 100 µM
same,TGI,[2],> 100 µM
same,TGI,[3],> 100 µM
same,TGI,[4],> 100 µM
same,TGI,[5],> 100 µM
same,TGI,[6],> 100 µM
same,TGI,[7],> 100 µM
same,TGI,[8],> 100 µM
same,TGI,[9],> 100 µM
same,TGI,[10],> 100 µM
same,TGI,[11],> 100 µM
same,TGI,[12],> 100 µM
same,TGI,[13],> 100 µM
same,TGI,[14],> 100 µM
same,TGI,[15],> 100 µM
same,TGI,[16],> 100 µM
same,TGI,[17],> 100 µM
same,TGI,[18],> 100 µM
O=c1c2ncn(CCCl)c2n(-c2ccccc2)c(=S)n1-c1ccccc1,TGI,[1],> 100 µM
same,TGI,[2],> 100 µM
same,TGI,[3],> 100 µM
same,TGI,[4],> 100 µM
same,TGI,[5],> 100 µM
same,TGI,[6],> 100 µM
same,TGI,[7],> 100 µM
same,TGI,[8],> 100 µM
same,TGI,[9],> 100 µM
same,TGI,[10],> 100 µM
same,TGI,[11],> 100 µM
same,TGI,[12],> 100 µM
same,TGI,[13],> 100 µM
same,TGI,[19],> 100 µM
same,TGI,[14],> 100 µM
same,TGI,[15],> 100 µM
same,TGI,[16],> 100 µM
same,TGI,[17],> 100 µM
Cc1cc2c(=O)[nH]nc(N)c2c(N)n1,TGI,[1],> 100 µM
same,TGI,[2],> 100 µM
same,TGI,[3],> 100 µM
same,TGI,[4],> 100 µM
same,TGI,[5],> 100 µM
same,TGI,[6],> 100 µM
same,TGI,[7],> 100 µM
same,TGI,[8],> 100 µM
same,TGI,[9],> 100 µM
same,TGI,[10],> 100 µM
same,TGI,[11],> 100 µM
same,TGI,[12],> 100 µM
same,TGI,[13],> 100 µM
same,TGI,[19],> 100 µM
same,TGI,[14],> 100 µM
same,TGI,[16],> 100 µM
same,TGI,[17],> 100 µM
c1ccc2nc3cc4c(cc3nc2c1)NC12CCCCC1CC1=C(CCCC1)N42 (stereo unspecified),TGI,[1],> 10 µM
same,TGI,[2],> 10 µM
same,TGI,[3],> 10 µM
same,TGI,[4],> 10 µM
same,TGI,[5],> 10 µM
same,TGI,[6],6.96 µM
same,TGI,[7],> 10 µM
same,TGI,[8],7.06 µM
same,TGI,[9],> 10 µM
same,TGI,[10],> 10 µM
same,TGI,[11],1.51 µM
same,TGI,[13],5.52 µM
same,TGI,[19],> 10 µM
same,TGI,[14],> 10 µM
same,TGI,[15],7.7 µM
same,TGI,[16],8.14 µM
same,TGI,[17],> 10 µM
same,TGI,[18],7.06 µM
CN(NC(=O)c1cccs1)C1=NCCN1,TGI,[1],> 100 µM
same,TGI,[2],> 100 µM
same,TGI,[3],> 100 µM
same,TGI,[5],> 100 µM
same,TGI,[6],> 100 µM
same,TGI,[7],> 100 µM
same,TGI,[8],> 100 µM
same,TGI,[9],> 100 µM
same,TGI,[10],> 100 µM
same,TGI,[11],> 100 µM
same,TGI,[12],> 100 µM
same,TGI,[13],> 100 µM
same,TGI,[19],> 100 µM
same,TGI,[14],> 100 µM
same,TGI,[15],> 100 µM
same,TGI,[16],> 100 µM
same,TGI,[17],> 100 µM
same,TGI,[18],> 100 µM
NCCc1ccc2c(c1)C(=O)c1c(O)ccc(O)c1C2=O,TGI,[2],> 30.9 µM
same,TGI,[3],> 100 µM
same,TGI,[4],> 84.3 µM
same,TGI,[5],22.2 µM
same,TGI,[6],> 100 µM
same,TGI,[7],> 45.4 µM
same,TGI,[8],> 100 µM
same,TGI,[9],> 60.8 µM
same,TGI,[10],> 27.8 µM
same,TGI,[11],> 100 µM
same,TGI,[12],25.7 µM
same,TGI,[13],> 100 µM
same,TGI,[19],> 100 µM
same,TGI,[14],> 100 µM
same,TGI,[15],7.97 µM
same,TGI,[16],> 100 µM
same,TGI,[17],> 100 µM
same,TGI,[18],42.3 µM
O=C(O)c1cc(N(Cc2ccccc2O)Cc2cc(O)ccc2O)ccc1O,TGI,[1],> 100 µM
same,TGI,[2],> 100 µM
same,TGI,[3],> 100 µM
same,TGI,[5],> 100 µM
same,TGI,[6],> 100 µM
same,TGI,[7],> 100 µM
same,TGI,[8],> 100 µM
same,TGI,[9],> 100 µM
same,TGI,[10],> 100 µM
same,TGI,[11],> 100 µM
same,TGI,[12],> 100 µM
same,TGI,[13],> 100 µM
same,TGI,[19],> 100 µM
same,TGI,[14],> 100 µM
same,TGI,[15],> 100 µM
same,TGI,[16],> 100 µM
same,TGI,[17],> 100 µM
CC(C)(C)c1cc(C(C)(C)C)c2sc(=S)oc2c1O,TGI,[1],27.6 µM
same,TGI,[2],18.7 µM
same,TGI,[3],24.6 µM
same,TGI,[4],18.6 µM
same,TGI,[5],32.8 µM
same,TGI,[6],26.2 µM
same,TGI,[7],> 41.3 µM
same,TGI,[8],19.8 µM
same,TGI,[9],18.9 µM
same,TGI,[10],26.7 µM
same,TGI,[11],9.76 µM
same,TGI,[12],16.2 µM
same,TGI,[13],33.7 µM
same,TGI,[19],26 µM
same,TGI,[15],11.1 µM
same,TGI,[16],18 µM
same,TGI,[17],17.2 µM
same,TGI,[18],18.5 µM
CCCCOc1ccc(S(=O)(=O)/N=C(\NN)Nc2ccc(Cl)cc2)cc1,TGI,[1],> 100 µM
same,TGI,[2],30.2 µM
same,TGI,[3],60.2 µM
same,TGI,[4],48.1 µM
same,TGI,[5],67.4 µM
same,TGI,[6],45.3 µM
same,TGI,[7],36.6 µM
same,TGI,[8],> 100 µM
same,TGI,[9],> 100 µM
same,TGI,[10],46.3 µM
same,TGI,[11],52.6 µM
same,TGI,[12],37.5 µM
same,TGI,[13],> 100 µM
same,TGI,[19],> 100 µM
same,TGI,[15],36.7 µM
same,TGI,[16],> 100 µM
same,TGI,[17],> 100 µM
same,TGI,[18],27 µM
O=C(NNC(=O)c1ccccc1Cl)c1ccccc1O,TGI,[1],> 100 µM
same,TGI,[2],> 100 µM
same,TGI,[3],> 100 µM
same,TGI,[4],> 100 µM
same,TGI,[5],> 100 µM
same,TGI,[6],> 100 µM
same,TGI,[7],> 100 µM
same,TGI,[8],> 100 µM
same,TGI,[10],> 100 µM
same,TGI,[11],> 100 µM
same,TGI,[12],> 100 µM
same,TGI,[13],> 100 µM
same,TGI,[19],> 100 µM
same,TGI,[15],> 100 µM
same,TGI,[16],> 100 µM
same,TGI,[17],> 100 µM
same,TGI,[18],> 100 µM
COC(=O)CCc1ccc2c(c1)CC1(C2)Cc2ccc3c(c2C1)CCC3 (stereo unspecified),TGI,[1],> 100 µM
same,TGI,[2],> 100 µM
same,TGI,[3],> 100 µM
same,TGI,[5],> 100 µM
same,TGI,[6],> 100 µM
same,TGI,[7],> 100 µM
same,TGI,[8],> 100 µM
same,TGI,[9],> 100 µM
same,TGI,[10],> 100 µM
same,TGI,[11],> 100 µM
same,TGI,[12],67.5 µM
same,TGI,[13],> 100 µM
same,TGI,[19],> 100 µM
same,TGI,[14],> 100 µM
same,TGI,[15],> 100 µM
same,TGI,[16],> 100 µM
same,TGI,[17],> 100 µM
same,TGI,[18],> 100 µM
O=C(/C=C/c1ccc(F)c(F)c1)OCCc1ccccc1,TGI,[1],> 100 µM
same,TGI,[2],> 100 µM
same,TGI,[3],> 100 µM
same,TGI,[4],> 100 µM
same,TGI,[5],> 100 µM
same,TGI,[6],> 100 µM
same,TGI,[7],> 100 µM
same,TGI,[8],> 100 µM
same,TGI,[9],> 100 µM
same,TGI,[10],> 100 µM
same,TGI,[11],> 100 µM
same,TGI,[12],> 100 µM
same,TGI,[13],> 100 µM
same,TGI,[14],> 100 µM
same,TGI,[15],> 100 µM
same,TGI,[16],> 100 µM
same,TGI,[17],> 100 µM
same,TGI,[18],> 100 µM
CCOC(=O)c1c(N2CCOCC2)[nH]c(=O)c(C(c2ccc(Cl)c([N+](=O)[O-])c2)c2c(O)c(C(=O)OCC)c(N3CCOCC3)[nH]c2=O)c1O,TGI,[1],> 100 µM
same,TGI,[2],41.9 µM
same,TGI,[4],> 100 µM
same,TGI,[5],> 100 µM
same,TGI,[6],> 100 µM
same,TGI,[7],> 100 µM
same,TGI,[8],70.1 µM
same,TGI,[9],98.8 µM
same,TGI,[10],41.9 µM
same,TGI,[11],> 100 µM
same,TGI,[12],95.5 µM
same,TGI,[13],> 100 µM
same,TGI,[19],> 100 µM
same,TGI,[14],> 100 µM
same,TGI,[15],59.7 µM
same,TGI,[16],> 100 µM
same,TGI,[17],> 100 µM
same,TGI,[18],> 100 µM
